{"source": "patent US6573299B1", "about": "“Method and compositions for treatment of the aging eye” (Advanced Medical Instruments, priority 1999, dated 2003)", "origin": "cited, not measured here", "key": {"[1]": {"system": "tumor necrosis factor-alpha (TNF-alpha) and nitric oxide production"}, "retinal ganglion cells": {"system": "retinal ganglion cells", "details": "treated animals"}, "[2]": {"details": "long term high intake, greater than 1,000 mg/day"}, "[3]": {"details": "diet of 6 mg of lutein per day"}, "[4]": {"experiment": "not given", "remark": "listed apart in the source"}}, "data": [{"compound": "Oc1ccc(C=Cc2cc(O)cc(O)c2)cc1", "note": "[Resveratrol, 3,5,4′-trihydroxystilbene]", "values": [{"measurement": "TNF-alpha and nitric oxide production", "setting": "[1]", "result": "inhibit tumor necrosis factor-alpha (TNF-alpha) and nitric oxide production"}, {"measurement": "nitric oxide synthase inhibition", "setting": "nitric oxide synthase", "result": "suppresses nitric oxide synthase"}]}, {"compound": "N=C(N)NN", "note": "[aminoguanidine]", "values": [{"measurement": "loss of retinal ganglion cells", "setting": "retinal ganglion cells", "result": "reduction in the loss of retinal ganglion cells"}]}, {"compound": "O=C1O[C@H]([C@@H](O)CO)C(O)=C1O", "note": "[ascorbic acid]", "values": [{"measurement": "risk of cataracts", "setting": "[2]", "result": "substantially reduced risk of cataracts"}]}, {"compound": "CCCCCCCCCCCCCCCC(=O)OC[C@H](O)[C@H]1OC(=O)C(O)=C1O", "note": "[ascorbyl palmitate]", "values": [{"measurement": "erythema from UV injured skin", "setting": "5% lotion", "result": "effective in reducing erythema"}, {"measurement": "erythema after exposure to UVB", "setting": "skin pretreated topically, lecithin gel base, compared to untreated skin", "result": "decreased erythema"}]}, {"compound": "CC1=C[C@H](O)CC(C)(C)[C@H]1/C=C/C(C)=C/C=C/C(C)=C/C=C/C=C(C)/C=C/C=C(C)/C=C/C1=C(C)C[C@@H](O)CC1(C)C", "note": "[lutein]", "values": [{"measurement": "lower prevalence of AMD", "setting": "[3]", "result": 43, "unit": "%"}]}, {"compound": "Zinc", "values": [{"measurement": "nitric oxide synthase inhibition", "setting": "nitric oxide synthase", "result": "very potent inhibitor"}, {"measurement": "loss of visual acuity in patients with AMD", "setting": "[4]; clinical trial, high-dose zinc supplementation", "result": "reduction in the loss of visual acuity"}, {"measurement": "AMD", "setting": "[4]; study published in 1988", "result": "improved AMD"}]}]}
